Experimental data: the NIST ThermoML archive (doi:10.1021/je5009729)
Numbers after ± are expanded uncertainties.

Legend:
[1] = for vapor or sublimation pressure: Gas chromatography; for Normal melting temperature / Triple point temperature: DTA
[2] = Molar enthalpy of transition or fusion; conditions: DSC

Q: With CCCCCC=CCC=CCC=CCC=CCCCC(=O)O [5,8,11,14-eicosatetraenoic acid] as the compound, how does the “vapor or sublimation pressure” value ([1]; 298.15 K, Liquid) read?
A: Its value is 6.5e-10 kPa.

Q: With CCCCCCCC/C=C\CCCCCCCCCC(=O)O [(11Z)-eicosenoic acid] as the compound, how does the “vapor or sublimation pressure” value ([1]; 298.15 K, Liquid) read?
A: The value was 1.18e-09 kPa.

Q: With CCCCCCCCCCC/C=C\CCCCC(=O)O [(Z)-6-octadecenoic acid] as the compound, how does the “vapor or sublimation pressure” value ([1]; 298.15 K, Liquid) read?
A: The value was 1.13e-08 kPa.

Q: With CCCCCCCC/C=C\CCCCCCCC(=O)O [(Z)-9-octadecenoic acid] as the compound, how does the “vapor or sublimation pressure” value ([1]; 298.15 K, Liquid) read?
A: The value was 1.01e-08 kPa.

Q: For CCCCCCCC/C=C\CCCCCCCCCCCCCC(=O)O [(Z)-tetracos-15-enoic acid], which “Molar enthalpy of transition or fusion” value ([2]; Crystal) is on record?
A: The value was 14.4 ± 0.359 kcal/mol.

Q: What about the “vapor or sublimation pressure” value ([1]; 298 K, Crystal) of the same compound?
A: The value was 2.7e-12 kPa.

Q: And the “vapor or sublimation pressure” value ([1]; 298.15 K, Liquid)?
A: Its value is 1e-11 kPa.

Q: And the Normal melting temperature ([1]; Crystal)?
A: Its Normal melting temperature is 42 ± 1 °C.

Q: With CC/C=C\C/C=C\C/C=C\C/C=C\C/C=C\C/C=C\CCC(=O)O [cis-4,7,10,13,16,19-docosahexaenoic acid] as the compound, how does the “vapor or sublimation pressure” value ([1]; 298.15 K, Liquid) read?
A: Its value is 2.2e-11 kPa.

Q: With CCCCCC/C=C\CCCCCCCC(=O)O [cis-9-hexadecenoic acid] as the compound, how does the “vapor or sublimation pressure” value ([1]; 298.15 K, Liquid) read?
A: The value was 6.9e-08 kPa.

Q: Which results are given for CCCCCCCCCCCCCCCCCCCCCCCCCC(=O)O [hexacosanoic acid]?
A: Molar enthalpy of transition or fusion ([2]; Crystal 2): 21.2 ± 0.621 kcal/mol; vapor or sublimation pressure ([1]; 298.15 K, Crystal): 8e-15 kPa; vapor or sublimation pressure ([1]; 298.15 K, Liquid): 2.5e-12 kPa; Normal melting temperature ([1]; Crystal 1): 85.7 ± 0.7 °C; Triple point temperature ([1]; Crystal 2): 354.3 ± 0.5 K

Q: Which “Molar enthalpy of transition or fusion” value ([2]; Crystal 1) does the source give for CCCCCCCCCCCCCCCCCCCCCCCC(=O)O [lignoceric acid] here?
A: The value was 20.2 ± 0.454 kcal/mol.

Q: And the “Molar enthalpy of transition or fusion” value ([2]; Crystal 3)?
A: Its value is 1.18 ± 0.0621 kcal/mol.

Q: And the “vapor or sublimation pressure” value ([1]; 298 K, Crystal)?
A: The value was 4e-14 kPa.

Q: What about the “vapor or sublimation pressure” value ([1]; 298.15 K, Liquid) of the same compound?
A: The value was 1.1e-11 kPa.

Q: What about the Normal melting temperature ([1]; Crystal 1) of the same compound?
A: Its Normal melting temperature is 83.4 ± 0.5 °C.

Q: And the Triple point temperature ([1]; Crystal 2)?
A: The Triple point temperature was 351 ± 1 K.

Q: And the Triple point temperature ([1]; Crystal 3)?
A: Its Triple point temperature is 347 ± 1 K.
